In patent US9302999B2, “Substituted triazoles as herbicides” (E. I. DU PONT DE NEMOURS AND COMPANY, priority 2012, dated 2016):

How the values were obtained:
[1] = system: goosegrass (Eleusine indica); test: Test E pre-/postemergence: goosegrass; assay type: in vivo; conditions: Preemergence, scale 0 to 100
Text: (§1) Seeds of plant species selected from corn (Zea mays), soybean (Glycine max), velvetleaf (Abutilon theophrasti), lambsquarters (Chenopodium album), poinsettia, wild (wild poinsettia, Euphorbia heterophylla), pigweed, palmer (palmer pigweed, Amaranthus palmeri), waterhemp (common waterhemp, Amaranthus rudis), smartweed (ladysthumb smartweed, Polygonum persicaria), surinam grass (Brachiaria decumbens), crabgrass, large (large crabgrass, Digitaria sanguinalis), crabgrass, Brazil (Brazilian crabgrass, Digitaria horizontalis), panicum, fall (fall panicum, Panicum dichotomiflorum), foxtail, giant (giant foxtail, Setaria faberii), foxtail, green (green foxtail, Setaria viridis), goosegrass (Eleusine indica), johnsongrass (Sorghum halepense), ragweed (common ragweed, Ambrosia elation), barnyardgrass (Echinochloa crus-galli), sandbur (southern sandbur, Cenchrus echinatus), arrowleaf sida (Sida rhombifolia), ryegrass, Italian (Italian ryegrass, Lolium multiflorum), dayflower, (VA) (Virginia dayflower, Commelina virginica), field bindweed (Convolvulus arvensis), cocklebur (common cocklebur, Xanthium strumarium), morningglory (Ipomoea coccinea), nightshade (eastern black nightshade, Solanum ptycanthum), kochia (Kochia scoparia), nutsedge, yellow (yellow nutsedge, Cyperus esculentus) and beggarticks (hairy beggarticks, Bidens pilosa) were planted into a silt loam soil and treated preemergence with test chemicals formulated in a non-phytotoxic solvent mixture which included a surfactant. At the same time, plants selected from these crop and weed species were planted in pots containing a growing medium comprising spaghnum peat moss, vermiculite, wetting agent and starter nutrients and treated with postemergence applications of some of the test chemicals formulated in the same manner. Plants ranged in height from 2 to 18 cm for postemergence treatments (1- to 4-leaf stage).
(§2) Treated plants and controls were maintained in a greenhouse for 14 to 21 days, after which time all species were compared to controls and visually evaluated. Plant response ratings, summarized in Table E, are based on a scale of 0 to 100 where 0 is no effect and 100 is complete control. A dash (-) response means no test result.

[2] = system: foxtail, giant (giant foxtail, Setaria faberii); test: Test E pre-/postemergence: foxtail, giant; assay type: in vivo; conditions: Preemergence, scale 0 to 100
Text: as §1, §2

[3] = system: panicum, fall (fall panicum, Panicum dichotomiflorum); test: Test E pre-/postemergence: panicum, fall; assay type: in vivo; conditions: scale 0 to 100
Text: as §1, §2

Barnyardgrass = test: Test C preemergence: barnyardgrass; assay type: in vivo, Echinochloa crus-galli
Text: (§3) Seeds of plant species selected from blackgrass (Alopecurus myosuroides), bromegrass, downy (downy bromegrass, Bromus tectorum), foxtail, green (green foxtail, Setaria viridis), ryegrass, Italian (Italian ryegrass, Lolium multiflorum), winter wheat (Triticum aestivum), wild oat (Avena fatua), galium (catchweed bedstraw, Galium aparine), bermudagrass (Cynodon dactylon), surinam grass (Brachiaria decumbens), cocklebur (common cocklebur, Xanthium strumarium), corn (Zea mays), large crabgrass (Digitaria sanguinalis), woolly cupgrass (Eriochloa villosa), foxtail, giant (giant foxtail, Setaria faberii), goosegrass (Eleusine indica), johnsongrass (Sorghum halepense), kochia (Kochia scoparia), lambsquarters (Chenopodium album), morningglory (Ipomoea coccinea), nightshade (eastern black nightshade, Solanum ptycanthum), nutsedge, yellow (yellow nutsedge, Cyperus esculentus), pigweed (Amaranthus retroflexus), ragweed (common ragweed, Ambrosia elation), soybean (Glycine max), common (oilseed) sunflower (Helianthus annuus), Russian thistle (Salsola kali) and velvetleaf (Abutilon theophrasti) were planted into a blend of loam soil and sand and treated preemergence with test chemicals formulated in a non-phytotoxic solvent mixture which included a surfactant.
as §2, with “13” for “14”, “15” for “21”, “C,” for “E,”

Waterhemp = test: Test C preemergence: waterhemp; assay type: in vivo; conditions: 62 g ai/ha, scale of 0 to 100, 0 is no effect, 100 is complete control
Text: as §3
as §2, with “13” for “14”, “15” for “21”, “C,” for “E,”

[4] = system: barnyardgrass (Echinochloa crus-galli); test: Test C pre-/postemergence: barnyardgrass; assay type: in vivo; conditions: Preemergence, 250 g ai/ha; scale 0 to 100, 0 no effect, 100 complete control
Text: as §3
At the same time, plants selected from these crop and weed species and also barley (winter barley, Hordeum vulgare), canarygrass (Phalaris minor), chickweed (common chickweed, Stellaria media) windgrass (Apera spica-venti) and deadnettle (henbit deadnettle, Lamium amplexicaule) were planted in pots containing Redi-Earth® planting medium (Scotts Company, 14111 Scottslawn Road, Marysville, Ohio 43041) comprising spaghnum peat moss, vermiculite, wetting agent and starter nutrients and treated with postemergence applications of test chemicals formulated in the same manner. Plants ranged in height from 2 to 18 cm (1- to 4-leaf stage) for postemergence treatments.
as §2, with “13” for “14”, “15” for “21”, “C,” for “E,”

[5] = system: cocklebur (common cocklebur, Xanthium strumarium); test: Test F pre-/postemergence: cocklebur; assay type: in vivo; conditions: Preemergence
Text: Seeds of plant species selected from corn (Zea mays), soybean (Glycine max), velvetleaf (Abutilon theophrasti), lambsquarters (Chenopodium album), poinsettia, wild (wild poinsettia, Euphorbia heterophylla), pigweed, palmer (palmer pigweed, Amaranthus palmeri), waterhemp (common waterhemp, Amaranthus rudis), surinam grass (Brachiaria decumbens), crabgrass, Brazil (Brazilian crabgrass, Digitaria horizontalis), panicum, fall (fall panicum Panicum dichotomiflorum), crabgrass, large (large crabgrass, Digitaria sanguinalis), foxtail, giant (giant foxtail, Setaria faberii), foxtail, green (green foxtail Setaria viridis), goosegrass (Eleusine indica), ragweed (common ragweed, Ambrosia elatior), barnyardgrass (Echinochloa crus-galli), sandbur (southern sandbur, Cenchrus echinatus), arrowleaf sida (Sida rhombifolia), ryegrass, Italian (Italian ryegrass, Lolium multiflorum), dayflower, VA (Virginia (VA) dayflower, Commelina virginica), field bindweed (Convolvulus arvensis), cocklebur (common cocklebur, Xanthium strumarium), morningglory (Ipomoea coccinea), nightshade (eastern black nightshade, Solanum ptycanthum), kochia (Kochia scoparia), nutsedge, yellow (yellow nutsedge, Cyperus esculentus), johnsongrass (Sorghum halepense), smartweed (ladysthumb smartweed, Polygonum persicaria), and beggarticks (hairy beggarticks, Bidens pilosa), were planted into a silt loam soil and treated preemergence with test chemicals formulated in a non-phytotoxic solvent mixture which included a surfactant. At the same time, plants selected from these crop and weed species and also pigweed (Amaranthus retroflexus), waterhemp_RES1 (ALS/Triazine resistant common waterhemp, Amaranthus rudis) and waterhemp_RES2 (ALS/HPPD resistant common waterhemp, Amaranthus rudis) were planted in pots containing a planting medium comprising spaghnum peat moss, vermiculite, wetting agent and starter nutrients treated with postemergence applications of some of the test chemicals formulated in the same manner. Plants ranged in height from 2 to 18 cm for postemergence treatments (1- to 4-leaf stage).
as §2

[6] = 31 g ai/ha, scale of 0 to 100, 0 is no effect, 100 is complete control
[7] = 62 g ai/ha, scale of 0 to 100, 0 is no effect, 100 is complete control
[8] = 125 g ai/ha, scale 0 to 100, 0 no effect, 100 complete control
[9] = 16 g ai/ha, scale 0 to 100 (0 no effect, 100 complete control)
[10] = 31 g ai/ha, scale 0 (no effect) to 100 (complete control)
[11] = 31 g ai/ha, scale 0 to 100 (0 no effect, 100 complete control)

Row | SMILES | Plant response rating: Goosegrass ([1]; 16 g ai/ha) | Plant response rating: Goosegrass ([1]; 31 g ai/ha) | Plant response rating: Goosegrass ([1]; 125 g ai/ha) | Plant response rating: Foxtail, Giant ([2]; 16 g ai/ha) | Plant response rating: Foxtail, Giant ([2]; 31 g ai/ha) | Plant response rating: Foxtail, Giant ([2]; 125 g ai/ha) | Plant response rating: Panicum, Fall ([3]; Preemergence, 16 g ai/ha) | Plant response rating: Panicum, Fall ([3]; Preemergence, 31 g ai/ha) | Plant response rating: Panicum, Fall ([3]; Preemergence, 62 g ai/ha) | Plant response rating: Panicum, Fall ([3]; Preemergence, 125 g ai/ha) | Plant response rating, Barnyardgrass (Barnyardgrass; [7]) | Plant response rating, Barnyardgrass (Barnyardgrass; [8]) | Plant response rating, Waterhemp (Waterhemp) | Plant response rating, Barnyardgrass [4] | Plant response rating, Cocklebur ([5]; 62 g ai/ha, scale 0 to 100) | Plant response rating, Barnyardgrass (Barnyardgrass; [10]) | other results
1 | Cc1nn(-c2ccc(F)cc2)nc1Oc1ccnc(C(F)(F)F)c1 [Compound 129, 4-[[2-(4-fluorophenyl)-5-methyl-2H-1,2,3-triazol-4-yl]oxy]-2-(trifluoromethyl)pyridine] | 40 | 50 | 100 | 20 | 75 | 100 | 35 | 98 | 100 | 100 | – | – | – | – | – | – | Plant response rating: Goosegrass ([1]; 8 g ai/ha): 40; Plant response rating: Goosegrass ([1]; 62 g ai/ha): 60; Plant response rating: Foxtail, Giant ([2]; 8 g ai/ha): 0; Plant response rating: Foxtail, Giant ([2]; 62 g ai/ha): 98; Plant response rating: Panicum, Fall ([3]; Preemergence, 8 g ai/ha): 0
2 | CCCc1nn(-c2ccc(F)cc2)nc1Cc1ccnc(C(F)(F)F)c1 [Compound 153] | – | – | – | – | – | – | – | – | – | – | 90 | 100 | 100 | 100 | 0 | – | Plant response rating, Barnyardgrass (Barnyardgrass; [6]): 90; Plant response rating, Cocklebur [5, 9]: 0
3 | Cc1nn(-c2ccc(F)cc2)nc1Cc1ccnc(C(F)(F)F)c1 [Compound 16, 4-[[2-(4-fluorophenyl)-5-methyl-2H-1,2,3-triazol-4-yl]methyl]-2-(trifluoromethyl)pyridine] | 40 | 98 | 100 | 80 | 100 | 100 | 70 | 100 | 100 | 100 | – | – | – | – | – | – | Plant response rating: Goosegrass ([1]; 8 g ai/ha): 40; Plant response rating: Goosegrass ([1]; 62 g ai/ha): 100; Plant response rating: Foxtail, Giant ([2]; 8 g ai/ha): 5; Plant response rating: Panicum, Fall ([3]; Preemergence, 8 g ai/ha): 0
4 | CCOc1nn(-c2ccc(Br)cc2)nc1Cc1ccnc(C(F)(F)F)c1 [Compound 189] | – | – | – | – | – | – | – | – | – | – | 98 | 100 | 100 | – | – | 45 | Plant response rating, Barnyardgrass (Barnyardgrass; 16 g ai/ha, scale 0 (no effect) to 100 (complete control)): 25
5 | CCCc1nn(-c2ccc(C(F)(F)F)c(F)c2)nc1Oc1ccnc(C(F)(F)F)c1 [Compound 185] | – | – | – | – | – | – | – | – | – | – | 98 | 100 | – | 100 | – | 55 | –
6 | Cc1nn(-c2ccc(C(F)(F)F)c(F)c2)nc1Cc1ccnc(C(F)(F)F)c1 [Compound 162] | – | – | – | – | – | – | – | – | – | – | 100 | 100 | 100 | 100 | 0 | – | Plant response rating, Barnyardgrass (Barnyardgrass; [6]): 98; Plant response rating, Cocklebur ([5]; 4 g ai/ha, scale 0 to 100, 0 no effect, 100 complete control): 0; Plant response rating, Cocklebur ([5]; 8 g ai/ha, scale 0 to 100, 0 no effect, 100 complete control): 0; Plant response rating, Cocklebur [5, 11]: 0
7 | Cc1nn(-c2ccc(C(F)(F)F)cc2)nc1Cc1ccnc(C(F)(F)F)c1 [Compound 47, 4-[[5-methyl-2-[4-(trifluoromethyl)phenyl]-2H-1,2,3-triazol-4-yl]methyl]-2-(trifluoromethyl)pyridine] | 100 | 100 | 100 | 90 | 100 | 100 | 100 | 100 | 100 | 100 | – | – | – | – | – | – | Plant response rating: Goosegrass ([1]; 250 g ai/ha): 100; Plant response rating: Foxtail, Giant ([2]; 62 g ai/ha): 100; Plant response rating: Foxtail, Giant ([2]; 250 g ai/ha): 100; Plant response rating: Panicum, Fall ([3]; Postemergence, 250 g ai/ha): 40; Plant response rating: Panicum, Fall ([3]; Postemergence, 16 g ai/ha): 10; Plant response rating: Panicum, Fall ([3]; Postemergence, 31 g ai/ha): 20; Plant response rating: Panicum, Fall ([3]; Postemergence, 62 g ai/ha): 30; Plant response rating: Panicum, Fall ([3]; Postemergence, 125 g ai/ha): 30; Plant response rating: Panicum, Fall ([3]; Preemergence, 250 g ai/ha): 100
8 | CCc1nn(-c2ccc(F)cc2)nc1Oc1ccnc(C(F)(F)F)c1 [Compound 166] | – | – | – | – | – | – | – | – | – | – | 75 | 98 | 100 | 100 | – | 5 | –
9 | Fc1ccc(-n2nc(Cc3ccnc(C(F)(F)F)c3)c(OCC(F)(F)F)n2)cc1 [Compound 142] | – | – | – | – | – | – | – | – | – | – | – | – | – | – | 0 | – | Plant response rating, Cocklebur [5, 9]: 0; Plant response rating, Cocklebur [5, 11]: 0
